Test results taken from patent US20110086862A1, “POLYMORPHS OF PARDOPRUNOX” (priority 2009, published 2011).

Legend:
dopamine-D2 receptor = dopamine-D2 receptor (Homo sapiens, UniProt P14416); details: cited from earlier work
[1] = molecular target: T1, serotonin 5-HT1A receptor (Homo sapiens, UniProt P08908); details: cited from earlier work
T1 sequence (P08908 1-422): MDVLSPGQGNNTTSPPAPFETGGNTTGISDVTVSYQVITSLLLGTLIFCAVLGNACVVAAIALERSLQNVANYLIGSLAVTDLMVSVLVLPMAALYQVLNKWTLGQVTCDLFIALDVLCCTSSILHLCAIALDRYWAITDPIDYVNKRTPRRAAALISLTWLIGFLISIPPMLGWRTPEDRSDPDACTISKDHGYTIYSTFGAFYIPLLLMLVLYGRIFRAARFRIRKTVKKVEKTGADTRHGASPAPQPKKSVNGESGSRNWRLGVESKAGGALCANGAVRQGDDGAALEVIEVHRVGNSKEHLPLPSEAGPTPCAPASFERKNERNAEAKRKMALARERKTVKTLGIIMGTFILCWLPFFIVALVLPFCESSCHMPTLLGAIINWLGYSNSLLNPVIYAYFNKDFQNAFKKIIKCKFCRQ

[2] = Ageing experiments of α- and β-polymorphs (crystal modification by XRPD); format: physicochemical; details: shaken one week
Description: (§1) Relative stability of the α- and β-polymorphs of pardoprunox were determined by ageing and slurry experiments in six different solvents. The crystal modification of the solid material was determined using XRPD. For mixtures, amounts of α and β were determined using semi-quantitative calculations, based on the ratio of peak heights of specific reflections of the α- and β-polymorphs, respectively. A peak at 23.3° 2θwas used for α-polymorphs, and one at 15.3° 2θfor β-polymorphs. Due to effects of sample preparation, crystal orientation and differences in response factors, this estimation is semi-quantitative.
(§2) For ageing experiments, two series of saturated solutions of a specific polymorphic (α or β) form were shaken at 375 rpm, for one week, in six different solvents, one series at ambient temperature (ca. 20° C.) and one at 50° C. 40 ml tubes were filled with 0.5 g of the appropriate polymorphic form, and 25 ml of solvent (or mixture). After a week the precipitate was filtered and dried at ambient temperature under reduced pressure.

[3] = Slurry experiments of α- and β-polymorphs (crystal modification by XRPD); format: physicochemical; details: for Crystal modifications by XRPD, slurry experiment: before/after seeding not distinguished; for Crystal modifications by XRPD, slurry experiment, after seeding: seeded with 15-20 mg of the other form, shaken 1 week; for Crystal modifications by XRPD, slurry experiment, before seeding: shaken 1 day
Description: as §1
(§3) For slurry experiments, two series of saturated solutions of a specific polymorphic (α or β) form were shaken at 375 rpm for one day in six different solvents, one series at ambient temperature and one at 50° C. 40 ml tubes were filled with 0.5 g of the appropriate polymorphic form, and 25 ml of solvent (or mixture). After 1 day about 2.5 ml of sample was taken from each tube, filtered and dried at ambient temperature under reduced pressure. Subsequently the crystal modification was determined. After the samples were taken each tube was seeded with 15-20 mg of the other polymorphic form. Then, all tubes were shaken for 1 week at 375 rpm at ambient temperature or at 50° C. Finally, the precipitate was filtered and dried at ambient temperature under reduced pressure and the crystal modification was determined.

[4] = Stability tests: relative stability from ageing and slurry experiments; format: physicochemical; details: for Relative stability of the polymorphs: at the applied experimental conditions (ageing and slurry), hydrochloride; for Conversion from β- to α-polymorph: ageing and slurry, ambient temperature and 50° C.
Description: as §1, §2, §3

[5] = toluene/methanol (10:3), 50° C.
[6] = toluene/methanol (10:3), ambient

Chain of dopamine-D2 receptor (P14416 whole entry, species assumed): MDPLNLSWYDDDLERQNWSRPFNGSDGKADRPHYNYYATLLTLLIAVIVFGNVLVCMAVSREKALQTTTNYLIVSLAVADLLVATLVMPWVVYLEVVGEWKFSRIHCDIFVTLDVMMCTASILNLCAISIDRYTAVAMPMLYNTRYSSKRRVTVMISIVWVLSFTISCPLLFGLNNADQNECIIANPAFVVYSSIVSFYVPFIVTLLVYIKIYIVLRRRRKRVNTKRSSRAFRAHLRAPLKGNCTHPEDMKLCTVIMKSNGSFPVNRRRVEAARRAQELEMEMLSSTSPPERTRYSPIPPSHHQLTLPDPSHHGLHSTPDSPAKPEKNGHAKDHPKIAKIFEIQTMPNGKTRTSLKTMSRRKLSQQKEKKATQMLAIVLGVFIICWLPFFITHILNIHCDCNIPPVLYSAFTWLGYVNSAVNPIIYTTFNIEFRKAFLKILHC

Structure (SMILES): CN1CCN(c2cccc3[nH]c(=O)oc23)CC1.Cl [pardoprunox, 7-(4-methyl-1-piperazinyl)benzoxazol-2(3H)-one mono-hydrochloride]
- Functional activity at dopamine-D2 receptor (dopamine-D2 receptor): partial dopamine-D2 receptor agonist
- Functional activity at serotonin 5-HT1A receptor [1]: full serotonin 5-HT1A receptor agonist

Structure (SMILES): CN1CCN(c2cccc3[nH]c(=O)oc23)CC1.Cl [α-polymorph, 7-[(4-methyl)-1-piperazinyl]-2(3H)-benzoxazolone hydrochloride]
- Crystal modifications by XRPD after ageing ([2]; 1,2-dimethoxy ethane, 50° C., hydrochloride): α
- Crystal modifications by XRPD after ageing ([2]; 1,2-dimethoxy ethane, ambient, hydrochloride): α
- Crystal modifications by XRPD after ageing ([2]; 96% ethanol, 50° C.): α
- Crystal modifications by XRPD after ageing ([2]; acetonitrile, 50° C., hydrochloride): α
- Crystal modifications by XRPD after ageing ([2]; acetonitrile, ambient, hydrochloride): α
- Crystal modifications by XRPD after ageing ([2]; ethyl acetate/isopropanol (2:1), 50° C., hydrochloride): α
- Crystal modifications by XRPD after ageing ([2]; ethyl acetate/isopropanol (2:1), ambient, hydrochloride): α
- Crystal modifications by XRPD after ageing ([2]; methyl ethyl ketone, 50° C., hydrochloride): α
- Crystal modifications by XRPD after ageing ([2]; methyl ethyl ketone, ambient, hydrochloride): α
- Crystal modifications by XRPD after ageing [2, 5]: α
- Crystal modifications by XRPD after ageing [2, 6]: α
- Crystal modifications by XRPD, slurry experiment ([3]; 1,2-dimethoxy ethane, 50° C.): α
- Crystal modifications by XRPD, slurry experiment ([3]; 1,2-dimethoxy ethane, ambient): α
- Crystal modifications by XRPD, slurry experiment ([3]; 96% ethanol, 50° C.): α
- Crystal modifications by XRPD, slurry experiment ([3]; acetonitrile, 50° C.): α
- Crystal modifications by XRPD, slurry experiment ([3]; acetonitrile, ambient): α
- Crystal modifications by XRPD, slurry experiment ([3]; ethyl acetate/isopropanol (2:1), 50° C.): α
- Crystal modifications by XRPD, slurry experiment ([3]; ethyl acetate/isopropanol (2:1), ambient): α
- Crystal modifications by XRPD, slurry experiment ([3]; methyl ethyl ketone, 50° C.): α
- Crystal modifications by XRPD, slurry experiment ([3]; methyl ethyl ketone, ambient): α
- Crystal modifications by XRPD, slurry experiment [3, 5]: α
- Crystal modifications by XRPD, slurry experiment [3, 6]: α
- Conversion from α- to β-polymorph ([4]; ageing and slurry experiments, all solvents): Neither in ageing nor in slurry experiments, was conversion from α- to β-polymorph observed
- Relative stability of the polymorphs ([4]; listed as a-polymorph): more stable than the β-polymorph
- Relative stability of the polymorphs ([4]; listed as crystal modification a): more stable than crystal modification β

Structure (SMILES): CN1CCN(c2cccc3[nH]c(=O)oc23)CC1.Cl [β-polymorph, 7-[(4-methyl)-1-piperazinyl]-2(3H)-benzoxazolone hydrochloride]
- Crystal modifications by XRPD after ageing ([2]; 96% ethanol, 50° C.): α
- Crystal modifications by XRPD after ageing ([2]; 96% ethanol, ambient (ca. 20° C.), hydrochloride): α
- Crystal modifications by XRPD after ageing [2, 5]: α
- Crystal modifications by XRPD after ageing [2, 6]: α
- Crystal modifications by XRPD, slurry experiment, after seeding ([3]; 96% ethanol, 50° C.): α
- Crystal modifications by XRPD, slurry experiment, before seeding ([3]; 96% ethanol, 50° C.): α
- Crystal modifications by XRPD, slurry experiment, after seeding ([3]; 96% ethanol, ambient): α
- Crystal modifications by XRPD, slurry experiment, before seeding ([3]; 96% ethanol, ambient): α
- Crystal modifications by XRPD, slurry experiment, after seeding ([3]; acetonitrile, 50° C.): α
- Crystal modifications by XRPD, slurry experiment, after seeding [3, 5]: α
- Crystal modifications by XRPD, slurry experiment, before seeding [3, 5]: α
- Crystal modifications by XRPD, slurry experiment, after seeding [3, 6]: α
- Conversion from β- to α-polymorph ([4]; acetonitrile): substantial conversion
- Conversion from β- to α-polymorph ([4]; ethanol and 10:3 toluene/methanol mixture): complete conversion
- Conversion from β- to α-polymorph ([4]; other solvents): the conversion was minimal
